The text below walks through data of US9725459B2, “3-oxo-tetrahydro-furo[3,2-B]pyrrol-4(5H)-yl) derivatives I” (GRÜNENTHAL GMBH, priority 2014, dated 2017).

What all share (format): biochemical
In assay [1] the target is human cathepsin K (CatK) (Homo sapiens (Human), UniProt P43235). The assay is described as follows: CatK functional enzyme assay. The following applies: recombinant human CatK, substrate Z-FR-AMC 40 μM, pH 5.5; Ki by Cheng Prusoff equation; read-out: hCatK, Ki. In a few lines:
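Recombinant human enzymes in 50 mM NaOAc, 10 mM EDTA, 1 mM DTT, 0.01% Triton X-100, pH 5.5, 10 min at RT. CatK: 0.00175 mU/well with 40 μM Z-FR-AMC; CatL: 0.000874 mU/well with 40 μM Z-VVR-AMC. AMC fluorescence read; IC50 converted to Ki via Cheng–Prusoff.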

Assay [2] concerns the target human cathepsin S (CatS) (Homo sapiens (Human), UniProt P25774). Kind of assay: CatS functional enzyme assay. The following applies: for Selectivity Ki(hCatS)/Ki(hCatK): ratio Ki(hCatS)/Ki(hCatK); for Ki: recombinant human CatS, substrate Z-VVR-AMC 5 μM, pH 6.5, Ki by Cheng Prusoff equation, read-out: hCatS, Ki. In a few lines:
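Recombinant human enzymes were incubated 10 min at RT with AMC substrate: CatS 0.0007 mU/well with Z-VVR-AMC 5 µM; CatK 0.00175 mU/well with Z-FR-AMC 40 µM; CatL 0.000874 mU/well with Z-VVR-AMC 40 µM. Fluorescence gave IC50, converted to Ki by Cheng-Prusoff.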

The target of assay [3] is human cathepsin L (CatL) (Homo sapiens (Human), UniProt P07711). The assay is described as follows: CatL functional enzyme assay. The following applies: read-out: hCatL, inhibition [%] at 31.6 μM.

Each structure is given as a SMILES string.

human cathepsin K (CatK), sequence (P43235 115-329): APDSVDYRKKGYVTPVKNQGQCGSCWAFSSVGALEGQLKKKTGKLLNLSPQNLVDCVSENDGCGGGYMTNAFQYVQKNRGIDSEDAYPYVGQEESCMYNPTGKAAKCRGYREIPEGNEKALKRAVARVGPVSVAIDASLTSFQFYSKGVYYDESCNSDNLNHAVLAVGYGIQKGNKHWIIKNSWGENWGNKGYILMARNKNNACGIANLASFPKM
human cathepsin S (CatS), sequence (P25774 115-331): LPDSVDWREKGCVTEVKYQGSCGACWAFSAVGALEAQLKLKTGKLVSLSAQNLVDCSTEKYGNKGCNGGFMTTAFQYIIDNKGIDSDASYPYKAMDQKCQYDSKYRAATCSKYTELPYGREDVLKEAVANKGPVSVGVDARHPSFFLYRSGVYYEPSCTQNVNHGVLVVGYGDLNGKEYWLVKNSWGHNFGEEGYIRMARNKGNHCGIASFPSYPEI
human cathepsin L (CatL), sequence (P07711 114-333): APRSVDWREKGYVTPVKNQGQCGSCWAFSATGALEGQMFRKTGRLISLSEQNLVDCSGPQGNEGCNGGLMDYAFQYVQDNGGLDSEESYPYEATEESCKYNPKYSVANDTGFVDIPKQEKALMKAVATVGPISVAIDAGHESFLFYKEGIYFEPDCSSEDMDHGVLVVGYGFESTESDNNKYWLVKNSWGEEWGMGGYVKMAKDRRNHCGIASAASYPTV

As for `O=C(N[C@H](C(=O)N1C[C@H](Cl)[C@H]2OCC(=O)[C@H]21)C1CCCCC1)c1ccc(-c2ccc(C3CC3)nc2)s1` [Example 63, N-((S)-2-((3aS,6S,6aS)-6-chloro-3-oxotetrahydro-2H-furo[3,2-b]pyrrol-4(5H)-yl)-1-cyclohexyl-2-oxoethyl)-5-(6-cyclopropylpyridin-3-yl)thiophene-2-carboxamide], in assay [1], the inhibitory constant (Ki) (in general, a dissociation constant, usually derived from enzyme kinetics or from competition with a known ligand) stood at 0.019 µM. Besides, in assay [2], the “Selectivity Ki(hCatS)/Ki(hCatK)” value is recorded as 27.6 and the Ki stood at 0.525 µM. In addition, in assay [3], the inhibition – broadly, the change of the read-out against control, counted positive when it falls – at 31.6 µM was determined as 1%.
Taken in the same sequence, the figures for `O=C(N[C@H](C(=O)N1C[C@H](Cl)[C@H]2OCC(=O)[C@H]21)C1CCCCC1)c1ncc(-c2ccc(C3CC3)nc2)s1` [Example 64, N-((S)-2-((3aS,6S,6aS)-6-chloro-3-oxotetrahydro-2H-furo[3,2-b]pyrrol-4(5H)-yl)-1-cyclohexyl-2-oxoethyl)-5-(6-cyclopropylpyridin-3-yl)thiazole-2-carboxamide] were 0.029 µM, 21.3, 0.616 µM and 5%.
Taken in the same sequence, the figures for `O=C(N[C@H](C(=O)N1C[C@H](Cl)[C@H]2OCC(=O)[C@H]21)C1CCCCC1)c1sc(-c2cccnc2)cc1F` [Example 65, N-((S)-2-((3aS,6S,6aS)-6-chloro-3-oxotetrahydro-2H-furo[3,2-b]pyrrol-4(5H)-yl)-1-cyclohexyl-2-oxoethyl)-3-fluoro-5-(pyridin-3-yl)thiophene-2-carboxamide] were 0.551 µM, 1.2, 0.646 µM and 5%.
The like results for `O=C(N[C@H](C(=O)N1C[C@H](Cl)[C@H]2OCC(=O)[C@H]21)C1CCCCC1)c1ccc(-c2ccnc(C3CC3)c2)s1` [Example 66, N-((S)-2-((3aS,6S,6aS)-6-chloro-3-oxotetrahydro-2H-furo[3,2-b]pyrrol-4(5H)-yl)-1-cyclohexyl-2-oxoethyl)-5-(2-cyclopropylpyridin-4-yl)thiophene-2-carboxamide] were, in that order, 0.007 µM, 5.0, 0.034 µM and 3%.
Take `O=C(N[C@H](C(=O)N1C[C@H](Cl)[C@H]2OCC(=O)[C@H]21)C1CCCCC1)c1ncc(-c2cnc(C(F)(F)F)nc2)s1` [Example 67, N-((S)-2-((3aS,6S,6aS)-6-chloro-3-oxotetrahydro-2H-furo[3,2-b]pyrrol-4(5H)-yl)-1-cyclohexyl-2-oxoethyl)-5-(2-(trifluoromethyl)pyrimidin-5-yl)thiazole-2-carboxamide]: the Ki in assay [1] came to 0.042 µM; in assay [2], 0.198 µM. Also, the “Selectivity Ki(hCatS)/Ki(hCatK)” value in assay [2] is listed as 4.7. In assay [3], the inhibition at 31.6 µM is 8%.
Taken in the same sequence, the figures for `O=C(N[C@H](C(=O)N1C[C@H](Cl)[C@H]2OCC(=O)[C@H]21)C1CCCCC1)c1ncc(-c2ccc(C(F)(F)F)nc2)s1` [Example 68, N-((S)-2-((3aS,6S,6aS)-6-chloro-3-oxotetrahydro-2H-furo[3,2-b]pyrrol-4(5H)-yl)-1-cyclohexyl-2-oxoethyl)-5-(6-(trifluoromethyl)pyridin-3-yl)thiazole-2-carboxamide] were 0.065 µM, 0.383 µM, 5.9 and 5%.
With `Cc1cc(-c2ccc(C(=O)N[C@H](C(=O)N3C[C@H](Cl)[C@H]4OCC(=O)[C@H]43)C3CCCCC3)s2)cnn1` [Example 69, N-((S)-2-((3aS,6S,6aS)-6-chloro-3-oxotetrahydro-2H-furo[3,2-b]pyrrol-4(5H)-yl)-1-cyclohexyl-2-oxoethyl)-5-(6-methylpyridazin-4-yl)thiophene-2-carboxamide], the Ki in assay [1] came to 0.008 µM; in assay [2], 0.009 µM. Moreover, the “Selectivity Ki(hCatS)/Ki(hCatK)” value in assay [2] was found to be 1.1. Besides, the inhibition at 31.6 µM in assay [3] came out at 24%.
Consider `O=C(N[C@H](C(=O)N1C[C@H](Cl)[C@H]2OCC(=O)[C@H]21)C1CCCCC1)c1ccc(-c2ccc[n+]([O-])c2)s1` [Example 70, 3-(5-(((S)-2-((3aS,6S,6aS)-6-chloro-3-oxotetrahydro-2H-furo[3,2-b]pyrrol-4(5H)-yl)-1-cyclohexyl-2-oxoethyl)carbamoyl)thiophen-2-yl)pyridine 1-oxide], for which the Ki in assay [1] came to 0.019 µM. Further, in assay [2], the “Selectivity Ki(hCatS)/Ki(hCatK)” value was 1.5 and the Ki came out at 0.027 µM. In addition, the inhibition at 31.6 µM in assay [3] is 41%.
The like results for `COc1cc(-c2ccc(C(=O)N[C@H](C(=O)N3C[C@H](Cl)[C@H]4OCC(=O)[C@H]43)C3CCCCC3)s2)cnn1` [Example 71, N-((S)-2-((3aS,6S,6aS)-6-chloro-3-oxotetrahydro-2H-furo[3,2-b]pyrrol-4(5H)-yl)-1-cyclohexyl-2-oxoethyl)-5-(6-methoxypyridazin-4-yl)thiophene-2-carboxamide] were, in that order, 0.008 µM, 3.0, 0.023 µM and 32%.
The like results for `COc1cnnc(-c2ccc(C(=O)N[C@H](C(=O)N3C[C@H](Cl)[C@H]4OCC(=O)[C@H]43)C3CCCCC3)s2)c1` [Example 72, N-((S)-2-((3aS,6S,6aS)-6-chloro-3-oxotetrahydro-2H-furo[3,2-b]pyrrol-4(5H)-yl)-1-cyclohexyl-2-oxoethyl)-5-(5-methoxypyridazin-3-yl)thiophene-2-carboxamide] were, in that order, 0.039 µM, 1.4, 0.055 µM and 30%.
For `CCc1cnnc(-c2ccc(C(=O)N[C@H](C(=O)N3C[C@H](Cl)[C@H]4OCC(=O)[C@H]43)C3CCCCC3)s2)c1` [Example 73, N-((S)-2-((3aS,6S,6aS)-6-chloro-3-oxotetrahydro-2H-furo[3,2-b]pyrrol-4(5H)-yl)-1-cyclohexyl-2-oxoethyl)-5-(5-ethylpyridazin-3-yl)thiophene-2-carboxamide], the Ki in assay [1] was 0.015 µM. Moreover, in assay [2], the “Selectivity Ki(hCatS)/Ki(hCatK)” value was 0.9 and the Ki amounted to 0.013 µM. Further, the inhibition at 31.6 µM in assay [3] was 26%.
`O=C(N[C@H](C(=O)N1C[C@H](Cl)[C@H]2OCC(=O)[C@H]21)C1CCCCC1)c1ccc(-c2cc(C3CC3)cnn2)s1` [Example 74, N-((S)-2-((3aS,6S,6aS)-6-chloro-3-oxotetrahydro-2H-furo[3,2-b]pyrrol-4(5H)-yl)-1-cyclohexyl-2-oxoethyl)-5-(5-cyclopropylpyridazin-3-yl)thiophene-2-carboxamide]: the Ki turned out to be 0.022 µM in assay [1] and 0.007 µM in assay [2]. Also, the “Selectivity Ki(hCatS)/Ki(hCatK)” value in assay [2] was 0.3. Further, the inhibition at 31.6 µM in assay [3] is 19%.
The like results for `Cc1cc(-c2cnc(C(=O)N[C@H](C(=O)N3C[C@H](Cl)[C@H]4OCC(=O)[C@H]43)C3CCCCC3)s2)cnn1` [Example 75, N-((S)-2-((3aS,6S,6aS)-6-chloro-3-oxotetrahydro-2H-furo[3,2-b]pyrrol-4(5H)-yl)-1-cyclohexyl-2-oxoethyl)-5-(6-methylpyridazin-4-yl)thiazole-2-carboxamide] were, in that order, 0.018 µM, 0.021 µM, 1.2 and 28%.
